We go through 19 molecules from US11103509B2 (University of Kentucky Research Foundation, priority 2018, dated 2021).

Structures are written as SMILES. Read-outs that look alike come from different tables or passages of the source.

In assay [1] the test system is pain in cancer patients. Briefly: clinical data mining: pain complaints in afatinib Phase III clinical trial NCT00656136. It counts as in vivo, human. Here is the method: To address this question, data from phase III clinical trial (NCT00656136) was also analyzed for drug afatinib, another EGFR and HER2 dual inhibitor approved by the FDA in 2013.
The subject of assay [2] is pain in cancer patients. The settings on record: cited from earlier work.
In the next assay the target is T1, human mPGES-1 (Homo sapiens, UniProt O14684).
T1 construct: made in house
T1 sequence (O14684 1-152): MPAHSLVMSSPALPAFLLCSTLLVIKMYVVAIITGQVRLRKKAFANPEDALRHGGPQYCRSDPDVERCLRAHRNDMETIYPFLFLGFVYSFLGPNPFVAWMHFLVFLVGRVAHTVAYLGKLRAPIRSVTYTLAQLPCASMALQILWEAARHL
Briefly: in vitro inhibitory activity against human mPGES-1 (PGE2 enzyme immunoassay). The settings on record: for inhibition at 10 µM: read-out: Inhibition (%) at 10 μM. Format: biochemical. Here is the method: The above computational predictions were followed by in vitro activity assays for their actual inhibitory activity against human mPGES-1 using an ELISA assay previously-described.^16-17, 19 Specifically, a total of 18 FDA-approved drugs were assayed for their inhibitory activity against human mPGES-1.
The protocol for the protein preparation and in vitro activity assays were the same as described previously.^69-72 The enzyme activity assays were performed on ice in 1.5 ml microfuge tubes by using the expressed human mPGES-1. The reaction mixture contained: 0.2 M Na2HPO4/NaH2PO4, pH 7.2, 10 μL; 0.1 M GSH, 2.5 μL; diluted microsomal enzyme (80 μg/mL), 1 μL; PGH2 (0.31 mM in DMF), 5 μL; 1 μL inhibitor; and H2O in a final reaction volume of 100 μL. PGH2 was stored in dry ice and used to initiate the reaction. Compounds were incubated with the enzyme for 15 min at room temperature before the addition of cold PGH2 (1 μM final) to initiate the enzyme reaction. After 30 s, 10 μL of SnCl2 (40 mg/mL) in ethanol was added to stop the reaction. The non-enzymatic conversion of PGH2 to PGE2 was performed in the same buffer devoid of enzyme. The reaction mixture was placed on ice until PGE2 production was determined by the PGE2 enzyme immunoassay as described earlier. IC50 values of the inhibitors were calculated by using the GraphPad Prism 6.0.

The mark [3] stands for this setting: NCT00656136, may include multiple types of pain from each patient.
The mark [4] stands for this setting: NCT00656136, with drug total 390.
Where [5] appears, read: 10 μM, single-concentration screening.

Broadly, the IC50 is the concentration that inhibits the measured activity by half. The low end stands for higher potency, the high end for lower potency. By inhibition is commonly meant the relative decrease from the control value, in per cent.

On to `CN(C)C/C=C/C(=O)Nc1cc2c(Nc3ccc(F)c(Cl)c3)ncnc2cc1O[C@H]1CCOC1` [afatinib], for which the “analgesic effect (in words)” value with pain in cancer patients [1] (NCT00656136, compared to placebo) is on record as “no analgesic effects at all”. For the same molecule, in the assay on pain in cancer patients [1] (setting [3]), the “# of patients complaining pain/# of patients given afatinib, Counts: Total pain occurrence” value is reported as 104/390 and the “patients complaining pain, Percentage(%): Total pain occurrence” value came out at 26.67%. For the same molecule, in the assay with pain in cancer patients [2] (setting [4]), the “Back Pain, With drug pains” value was 29; the “Headache, With drug pains” value is recorded as 21; the “Pain In Extremity, With drug pains” value is reported as 27; the “Pain-throat/pharynx/larynx, With drug pains” value was 27. Also, in the assay on pain in cancer patients [2] (NCT00656136), the “# of patients complaining pain/# of patients given afatinib, Counts: Back Pain” value is given as 29/390; the “# of patients complaining pain/# of patients given afatinib, Counts: Headache” value is 21/390; the “# of patients complaining pain/# of patients given afatinib, Counts: Pain - chest/thorax” value is 27/390; the “# of patients complaining pain/# of patients given afatinib, Counts: Pain in Extremity” value is 27/390. For the same molecule, in the assay on pain in cancer patients [2] (NCT00656136), the “patients complaining pain, Percentage(%): Back Pain” value is recorded as 7.43%; the “patients complaining pain, Percentage(%): Headache” value was 5.38%; the “patients complaining pain, Percentage(%): Pain - chest/thorax” value is given as 6.92%; the “patients complaining pain, Percentage(%): Pain in Extremity” value was 6.92%.

Turning to `CCOC(=O)[C@H](CCc1ccccc1)N[C@@H](C)C(=O)N1[C@H](C(=O)O)C[C@H]2CCCC[C@@H]21` [Trandolapril], the midpoint of inhibition at human mPGES-1, the IC50, lay at 9 ± 2.3 µM. Further, the inhibition at 10 µM at human mPGES-1 (setting [5]) worked out at 54%.

Consider `C[C@H]1[C@H](NC(=O)/C(=N\OC(C)(C)C(=O)O)c2csc(N)n2)C(=O)N1S(=O)(=O)O` [Aztreonam], for which, on human mPGES-1, the IC50 is 11.4 ± 1.1 µM. In addition, on human mPGES-1 (setting [5]), the inhibition at 10 µM came to 53%.

With `COc1cc(C)c(/C=C/C(C)=C/C=C/C(C)=C/C(=O)O)c(C)c1C` [Acitretin], half-maximal inhibition against human mPGES-1 (IC50) was put at 3.5 ± 1.6 µM. The inhibition at 10 µM on human mPGES-1 (setting [5]) worked out at 83%.

In the case of `C[C@]12CC[C@@H]3c4ccc(OC(=O)N(CCCl)CCCl)cc4CC[C@H]3[C@@H]1CC[C@@H]2OP(=O)(O)O` [Estramustine Phosphate], at human mPGES-1, the inhibition at 10 µM is 36%.

Regarding `COCC1=C(C(=O)OC(C)OC(=O)OC(C)C)N2C(=O)[C@@H](NC(=O)/C(=N\OC)c3csc(N)n3)[C@H]2SC1` (some centres unmarked) [Cefpodoxime Proxetil], on human mPGES-1, half-maximal inhibition (IC50) required 29.7 ± 6.3 µM. For the same molecule, at human mPGES-1 (setting [5]), the inhibition at 10 µM turned out to be 47%.

On human mPGES-1, `CO/N=C(\C(=O)N[C@@H]1C(=O)N2C(C(=O)O)=C(CSc3nc(=O)c(=O)[nH]n3C)CS[C@H]12)c1csc(N)n1` [Ceftriaxone] had a concentration for half-maximal inhibition (IC50) of 7.2 ± 2.4 µM. Further, the inhibition at 10 µM at human mPGES-1 (setting [5]) amounted to 57%.

As to `CC1(C)S[C@@H]2[C@H](NC(=O)COc3ccccc3)C(=O)N2[C@H]1C(=O)[O-].[K+]` [Penicillin V Potassium], the “Inhibition (%) at 10 μM” value on human mPGES-1 (setting [5]) amounted to 36%.

With `Cc1ccccc1C(=O)Nc1ccc(C(=O)N2CCCC(O)c3cc(Cl)ccc32)c(C)c1` (centres unmarked) [Tolvaptan], the IC50 on human mPGES-1 worked out at 10.2 ± 2.5 µM. Further, the inhibition at 10 µM on human mPGES-1 (setting [5]) turned out to be 52%.

For the molecule `CC(C)(C)C(=O)OCOP(=O)(COCCn1cnc2c(N)ncnc21)OCOC(=O)C(C)(C)C` [Adefovir Dipivoxil], on human mPGES-1 (setting [5]), the inhibition at 10 µM amounted to 19%.

In the case of `CCCCC[C@H](O)/C=C/[C@H]1[C@H](O)CC(=O)[C@@H]1CCCCCCC(=O)O` [Alprostadil], the inhibition at 10 µM at human mPGES-1 (setting [5]) worked out at 11%.

In turn, `CO[C@@]1(NC(=O)C2SC(=C(C(N)=O)C(=O)[O-])S2)C(=O)N2C(C(=O)[O-])=C(CSc3nnnn3C)CS[C@@H]21.[Na+].[Na+]` (some centres unmarked) [Cefotetan Disodium] registered a half-maximal inhibitory concentration (IC50) against human mPGES-1 of 13.5 ± 4 µM. On human mPGES-1 (setting [5]), the “Inhibition (%) at 10 μM” value worked out at 44%.

Turning to `CCCCC[C@H](O)/C=C/[C@H]1[C@H](O)CC(=O)[C@@H]1C/C=C\CCCC(=O)O` [Dinoprostone], on human mPGES-1 (setting [5]), the inhibition at 10 µM was found to be 4%.

`CS(=O)(=O)CCNCc1ccc(-c2ccc3ncnc(Nc4ccc(OCc5cccc(F)c5)c(Cl)c4)c3c2)o1` [Lapatinib Ditosylate]: on human mPGES-1 (setting [5]), the inhibition at 10 µM was 99%.

`C=C1/C(=C\C=C2/CCC[C@]3(C)[C@@H]([C@H](C)/C=C/[C@@H](O)C4CC4)CC[C@@H]23)C[C@@H](O)C[C@@H]1O` [Calcipotriene] showed an IC50 against human mPGES-1 of 3 ± 1.1 µM. In addition, the inhibition at 10 µM on human mPGES-1 (setting [5]) amounted to 68%.

`COc1cc2nc(N(C)CCCNC(=O)C3CCCO3)nc(N)c2cc1OC` (centres unmarked) [Alfuzosin]: the inhibition at 10 µM on human mPGES-1 (setting [5]) turned out to be 22%.

`OCCN(CCO)c1nc(N2CCCCC2)c2nc(N(CCO)CCO)nc(N3CCCCC3)c2n1` [Dipyridamole]: the inhibition at 10 µM at human mPGES-1 (setting [5]) amounted to 36%.

As for `COc1cc2nc(N3CCN(C(=O)C4COc5ccccc5O4)CC3)nc(N)c2cc1OC` (centres unmarked) [Doxazosin], the inhibition at 10 µM at human mPGES-1 (setting [5]) was 21%.

Regarding `C[C@]12C=CC(=O)C=C1CC[C@@H]1[C@@H]2[C@@H](O)C[C@@]2(C)[C@H]1CC[C@]2(O)C(=O)CO` [Prednisolone], the inhibition at 10 µM at human mPGES-1 (setting [5]) turned out to be 44%.
